In patent US20260250320A1, “LIPIDATED PEPTIDE INHIBITORS OF INTERLEUKIN-23 RECEPTOR” (Janssen Pharmaceutica NV, priority 2023, published 2026):
*1 amine or outer side, *2 acyl side, *3 side chain or, on linkers, in order; H or OH if unused. Where a SMILES comes first, the peptide text is derived from it. Bridges are numbered along the chain shown (N, C = ends). Side-chain parts run from the residue outwards. [ ]: non-standard residue; d: D form. The star is where a group is joined. ξ: configuration not given here. Me3N+CH2CH2(OCH2CH2)4CO = C[N+](C)(C)CCOCCOCCOCCOCCC(=O)*; PEG12 = NCCOCCOCCOCCOCCOCCOCCOCCOCCOCCOCCOCCOCCC(=O)O; Trp(7-Me) = Cc1cccc2c(C[C@H](N)C(=O)O)c[nH]c12; Abu(4-yl) = O=C([C@H](CC[*:3])N[*:1])[*:2]; C18 diacid = O=C(O)CCCCCCCCCCCCCCCCC(=O)*; X6 = CN(CC[C@H](N[*:1])C(=O)[*:2])[*:3]; γGlu = O=C(O)[C@H](CCC(=O)[*:2])N[*:1]; 2Nal = N[C@@H](Cc1ccc2ccccc2c1)C(=O)O; AEF = NCCOc1ccc(C[C@H](N)C(=O)O)cc1; X2 = C[N+](C)(C)C[C@@H](CC(=O)O)N*; 3Pal = N[C@@H](Cc1cccnc1)C(=O)O; aThr = C[C@H](O)[C@H](N)C(=O)O; NMeK = CN[C@@H](CCCCN)C(=O)O; PEG4 = NCCOCCOCCOCCOCCC(=O)O; Pen = CC(C)(S)[C@H](N)C(=O)O; Suc = O=C(CCC(=O)[*:2])[*:1]; Lauroyl = CCCCCCCCCCCC(=O)*; αMeC = C[C@](N)(CS)C(=O)O; ξR = N=C(N)NCCCC(N)C(=O)O; Thp = NC1(C(=O)O)CCOCC1; AEEA = NCCOCCOCC(=O)O; ClAc = O=C(CCl)*; Sar = CNCC(=O)O

Tests used:
IL-23R = target: T1, IL-23R (Homo sapiens, UniProt Q5VWK5); experiment: IL23R Reporter Assay; assay type: cell-based; settings: HEK293 cells containing IL-23R, IL-12Rβ1 and STAT-inducible firefly luciferase reporter; 10 ng/mL IL-23 (EC90); 5 h
T1 construct: HEK293 cells containing IL-23R, IL-12Rβ1 and a firefly luciferase reporter gene driven by a STAT-inducible promoter (Promega); host or cells: HEK293
T1 sequence (Q5VWK5 24-629): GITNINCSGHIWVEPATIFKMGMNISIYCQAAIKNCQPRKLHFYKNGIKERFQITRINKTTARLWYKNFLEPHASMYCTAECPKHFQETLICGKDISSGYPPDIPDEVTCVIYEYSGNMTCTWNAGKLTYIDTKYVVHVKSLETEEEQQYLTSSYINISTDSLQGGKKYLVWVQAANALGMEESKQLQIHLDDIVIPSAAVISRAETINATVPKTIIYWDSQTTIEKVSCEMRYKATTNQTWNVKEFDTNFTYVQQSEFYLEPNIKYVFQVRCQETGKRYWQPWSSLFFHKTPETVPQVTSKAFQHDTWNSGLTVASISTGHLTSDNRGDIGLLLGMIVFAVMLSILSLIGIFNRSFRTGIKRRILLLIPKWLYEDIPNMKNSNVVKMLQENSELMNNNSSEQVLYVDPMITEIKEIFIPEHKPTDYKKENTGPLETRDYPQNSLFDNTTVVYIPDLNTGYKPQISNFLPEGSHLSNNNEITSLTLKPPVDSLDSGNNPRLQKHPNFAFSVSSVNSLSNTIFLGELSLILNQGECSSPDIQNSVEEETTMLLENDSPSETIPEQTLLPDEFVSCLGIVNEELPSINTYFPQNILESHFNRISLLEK
Protocol: Compounds were serially diluted in 100% (v/v) DMSO) and plated using an Echo acoustic dispenser (Labcyte) into 1536-well non-treated black assay plates (Corning #9146). 3 μL of HEK293 cells containing IL-23R, IL-12Rβ1 and a firefly luciferase reporter gene driven by a STAT-inducible promoter (Promega) were added to the plates (4000 cells/well), followed by 3 μL of 10 ng/mL IL-23 (equivalent to EC90 concentration). After 5 h at 37° C., 5% CO2, 95% relative humidity, cells were placed at 20° C. and treated with BioGlo reagent (Promega) according to the Manufacturer's instructions. Luminescence was measured on a Pherastar FSX (BMG LabTech). Data were normalized to IL-23 treatment (0% inhibition) and 30 μM of control inhibitor (100% inhibition), and IC50 values were determined using a 4-parameter Hill equation.

[1] = test system: IL-23-stimulated phosphorylated STAT3 in peripheral blood mononuclear cells (PBMCs); experiment: PBMC pSTAT3 Assay; assay type: cell-based; settings: PBMCs from healthy donors; 30 min preincubation with peptide; IL-23 5 ng/mL for 30 min; phospho-STAT3 by MSD
Protocol: Cryopreserved peripheral blood mononuclear cells (PBMCs) from healthy donors were thawed and washed twice in ImmunoCult-XF T cell expansion medium (XF-TCEM) supplemented with CTL anti-aggregate wash. The cells were counted, resuspended at 2-6×10^5 cells per mL XF-TCEM supplemented with penicillin/streptomycin and 100 ng/mL […] (BioLegend, 579404), and cultured in tissue culture flasks coated with anti-CD3 (eBioscience, 16-0037-85 or BD Pharmingen, 555329) at 37° C. in 5% CO2. On day 4 of culture, PBMCs were collected, washed twice in RPMI-1640 supplemented with 0.1% BSA (RPMI-BSA), and incubated in RPMI-BSA in upright tissue culture flasks for ~4 hours at 37° C. in 5% CO2. Following this 'starvation,' a total of 6×10^4 cells in 30 μL RPMI-BSA was transferred into each well of a 384-well plate pre-spotted with peptide or DMSO. The cells were incubated for 30 minutes prior to the addition of […] at a final concentration of 5 ng/mL. The cells were stimulated with cytokine for 30 minutes at 37° C. in 5% CO2, transferred onto ice for 10 minutes, and lysed. Cell lysates were stored at -80° C. until phosphorylated STAT3 was measured using the phospho-STAT panel kit (Meso Scale Discovery, […]). Results are provided below. • A: IC50<0.5 nM; • B: 0.5 nM≤IC50<5 nM; • C: 5 nM≤IC50; • ND: Not determined

Row | Compound | IC50 (IL-23R) | IC50 [1]
1 | CC(=O)NCCCC[C@H](NC(=O)C1(NC(=O)[C@H](Cc2ccc3ccccc3c2)NC(=O)[C@H](Cc2ccc(OCCN)cc2)NC(=O)[C@@H](NC(=O)[C@@H](N)CCCCNC(C)=O)C(C)(C)SSC(C)(C)[C@H](NC(C)=O)C(=O)N[C@@H](CC(N)=O)C(=O)N[C@H](C(=O)N[C@H](Cc2c[nH]c3c(C)cccc23)C(C)=O)[C@@H](C)O)CCOCC1)C(=O)N[C@@H](CC(N)=O)C(=O)N[C@@H](Cc1cccnc1)C(=O)N(C)CC(=O)N[C@@H](CCCCNC(=O)COCCOCCN(C)C(=O)COCCOCCN(C)C(=O)CC[C@@H](C(=O)O)N(C)C(=O)CCCCCCCCCCCCCCCCCc1nnn[nH]1)C(N)=O [compound 2, MeCO-Pen(3)-N-T-7MeW-K(Ac)-Pen(3)-AEF-2Nal-THP-K(Ac)-N-3Pya-Sar-K(PEG2NMePEG2NMegENMeC18Tetrazole)-CONH2] | 50 to 500 nM | < 0.5 nM
2 | CC(=O)NCCCC[C@@H]1NC(=O)[C@H](Cc2c[nH]c3c(C)cccc23)NC(=O)[C@H]([C@@H](C)O)NC(=O)[C@H](CC(N)=O)NC(=O)[C@@H](NC(C)=O)C(C)(C)SSC(C)(C)[C@@H](C(=O)N[C@@H](Cc2ccc(OCCN)cc2)C(=O)N[C@@H](Cc2ccc3ccccc3c2)C(=O)NC2(C(=O)N[C@@H](CCC(=O)O)C(=O)N[C@@H](CC(N)=O)C(=O)N[C@@H](Cc3cccnc3)C(=O)N(C)CC(=O)N[C@@H](CCCCNC(=O)COCCOCCN(C)C(=O)COCCOCCN(C)C(=O)CC[C@@H](C(=O)O)N(C)C(=O)CCCCCCCCCCCCCCCCCc3nnn[nH]3)C(N)=O)CCOCC2)NC1=O [compound 3, MeCO-Pen(3)-N-T-7MeW-K(Ac)-Pen(3)-AEF-2Nal-THP-E-N-3Pya-Sar-K(PEG2NMePEG2NMegENMeC18Tetrazole)-CONH2] | < 50 nM | < 0.5 nM
3 | CC(=O)NCCCC[C@@H]1NC(=O)[C@H](Cc2c[nH]c3c(C)cccc23)NC(=O)[C@H]([C@@H](C)O)NC(=O)[C@H](CC(N)=O)NC(=O)[C@@H](NC(=O)[C@@H](CCCNC(=N)N)NC(C)=O)C(C)(C)SSC(C)(C)[C@@H](C(=O)N[C@@H](Cc2ccc(OCCN)cc2)C(=O)N[C@@H](Cc2ccc3ccccc3c2)C(=O)NC2(C(=O)N[C@@H](CCCCNC(=O)CCOCCOCCOCCOCCNC(=O)CCl)C(=O)N[C@@H](CC(N)=O)C(=O)N[C@@H](Cc3cccnc3)C(=O)N(C)CC(=O)N[C@@H](CCCCNC(=O)COCCOCCNC(=O)COCCOCCNC(=O)CC[C@H](NC(=O)CCCCCCCCCCCCCCCCC(=O)O)C(=O)O)C(N)=O)CCOCC2)NC1=O [compound 4, MeCO-r-Pen(3)-N-T-7MeW-K(Ac)-Pen(3)-AEF-2Nal-THP-K(PEG4AcCl)-N-3Pya-Sar-K(PEG2PEG2gEC18OH)-CONH2] (Ac-[dR][Pen]NT[Trp(7-Me)]K(Ac)[Pen][AEF][2Nal][Thp]K([PEG4-ClAc])N[3Pal][Sar]K([AEEA-AEEA-γGlu-C18 diacid])-NH2; disulfide 2-7) | < 50 nM | < 0.5 nM
4 | CCCCCCCCCCCC(=O)N[C@@H](CCC(=O)NCCOCCOCC(=O)NCCOCCOCC(=O)NC(CCCNC(=N)N)C(=O)N[C@H]1CCSC[C@@](C)(C(=O)N[C@@H](Cc2ccc(OCCN)cc2)C(=O)N[C@@H](Cc2ccc3ccccc3c2)C(=O)NC2(C(=O)N[C@@H](CCC(=O)O)C(=O)N[C@@H](CC(N)=O)C(=O)N[C@@H](Cc3cccnc3)C(=O)N(C)CC(N)=O)CCOCC2)NC(=O)[C@H](CCCCNC(C)=O)NC(=O)[C@H](Cc2c[nH]c3ccccc23)NC(=O)[C@H]([C@H](C)O)NC(=O)[C@H](CC(N)=O)NC1=O)C(=O)O (stereo partly drawn) [compound 5, C12gEPEG2PEG2CO-r-Abu(1)-N-T-W-K(Ac)-aMeC(1)-AEF-2Nal-THP-E-N-3Pya-Sar-CONH2] ({Lauroyl-γGlu-AEEA-AEEA}-[ξR][Abu(4-yl)]N[aThr]WK(Ac)[αMeC][AEF][2Nal][Thp]EN[3Pal][Sar]-NH2; thioether 2-7) | < 50 nM | 0.5 to 5 nM
5 | CC(=O)NCCCC[C@@H]1NC(=O)[C@H](Cc2c[nH]c3c(C)cccc23)NC(=O)[C@H]([C@@H](C)O)NC(=O)[C@H](CC(N)=O)NC(=O)[C@@H](NC(C)=O)C(C)(C)SSC(C)(C)[C@@H](C(=O)N[C@@H](Cc2ccc(OCCNC(=O)COCCOCCNC(=O)COCCOCCNC(=O)CC[C@H](NC(=O)CCCCCCCCCCCCCCCCC(=O)O)C(=O)O)cc2)C(=O)N[C@@H](Cc2ccc3ccccc3c2)C(=O)NC2(C(=O)N[C@@H](CCCCNC(=O)CCC(=O)N[C@H](CC(=O)O)C[N+](C)(C)C)C(=O)N[C@@H](CC(N)=O)C(=O)N[C@@H](Cc3cccnc3)C(=O)N(C)CC(N)=O)CCOCC2)NC1=O [compound 8, MeCO-Pen(3)-N-T-7MeW-K(Ac)-Pen(3)-AEF(PEG2PEG2gEC18OH)-2Nal-THP-K(d)-N-3Pya-Sar-CONH2] (Ac-[Pen]NT[Trp(7-Me)]K(Ac)[Pen][AEF]([AEEA-AEEA-γGlu-C18 diacid])[2Nal][Thp]K([Suc-X2])N[3Pal][Sar]-NH2; disulfide 1-6) | < 50 nM | < 0.5 nM
6 | CC(=O)NCCCC[C@@H]1NC(=O)[C@H](Cc2c[nH]c3c(C)cccc23)NC(=O)[C@H]([C@@H](C)O)NC(=O)[C@H](CC(N)=O)NC(=O)[C@@H](NC(=O)[C@@H](CCCNC(=N)N)NC(C)=O)C(C)(C)SSC(C)(C)[C@@H](C(=O)N[C@@H](Cc2ccc(OCCNC(=O)COCCOCCNC(=O)COCCOCCNC(=O)CC[C@H](NC(=O)CCCCCCCCCCCCCCCCC(=O)O)C(=O)O)cc2)C(=O)N[C@@H](Cc2ccc3ccccc3c2)C(=O)NC2(C(=O)N[C@@H](CCCCNC(=O)CCC(=O)N[C@H](CC(=O)O)C[N+](C)(C)C)C(=O)N[C@@H](CC(N)=O)C(=O)N[C@@H](Cc3cccnc3)C(=O)N(C)CC(N)=O)CCOCC2)NC1=O [compound 9, MeCO-r-Pen(3)-N-T-7MeW-K(Ac)-Pen(3)-AEF(PEG2PEG2gEC18OH)-2Nal-THP-K(d)-N-3Pya-Sar-CONH2] (Ac-[dR][Pen]NT[Trp(7-Me)]K(Ac)[Pen][AEF]([AEEA-AEEA-γGlu-C18 diacid])[2Nal][Thp]K([Suc-X2])N[3Pal][Sar]-NH2; disulfide 2-7) | < 50 nM | < 0.5 nM
7 | Cc1cccc2c(C[C@@H]3NC(=O)[C@H]([C@@H](C)O)NC(=O)[C@H](CC(=O)N(C)C)NC(=O)[C@@H](NC(=O)CCOCCOCCOCCOCC[N+](C)(C)C)C(C)(C)SSC(C)(C)[C@@H](C(=O)N[C@@H](Cc4ccc(OCCN)cc4)C(=O)N[C@@H](Cc4ccc5ccccc5c4)C(=O)NC4(C(=O)N[C@@H](CCC(=O)O)C(=O)N[C@@H](CC(N)=O)C(=O)N[C@@H](Cc5cccnc5)C(=O)N(C)[C@@H](CCCCNC(=O)CCOCCOCCOCCOCCOCCOCCOCCOCCOCCOCCOCCOCCNC(=O)CC[C@H](NC(=O)CCCCCCCCCCCCCCCCC(=O)O)C(=O)O)C(N)=O)CCOCC4)NC(=O)[C@H](CCN(C)C(=O)CCOCCOCCOCCOCC[N+](C)(C)C)NC3=O)c[nH]c12 [compound 111, cPEG5aCO-Pen(3)-N(N(Me)2)-T-7MeW-Dab(NMecPEG5a)-Pen(3)-AEF-2Nal-THP-E-N-3Pya-NMeK(PEG12gEC18OH)-CONH2] ({Me3N+CH2CH2(OCH2CH2)4CO}-[Pen]D(NMe2)T[Trp(7-Me)][X6](Me3N+CH2CH2(OCH2CH2)4CO)[Pen][AEF][2Nal][Thp]EN[3Pal][NMeK]([PEG12-γGlu-C18 diacid])-NH2; disulfide 1-6) |  | < 0.5 nM
